≈ marks a conversion by molar mass, not a printed value.
Test system: Pasteurella multocida
Assay: minimum inhibitory concentration (MIC)
Procedure: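 Broth microdilution MIC (Sensititre BOPO7F bovine plate, CLSI methods) of 19 antimicrobials against field isolates of P. multocida, M. haemolytica, H. somni (deep nasopharyngeal swabs) and E. coli, Enterococcus spp. (rectal swabs) from weaned dairy heifers. Incubation 16-24 h at 35 C. MIC is the lowest concentration preventing visible growth. Values with <= or > lie at the tested range limits. Trimethoprim-sulfamethoxazole is given as the trimethoprim component of a 1:19 mixture.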

CCCNC[C@]1(O)[C@H](C)O[C@@H](O[C@H]2[C@H](C)[C@@H](O[C@@H]3O[C@H](C)C[C@H](N(C)C)[C@H]3O)[C@](C)(O)C[C@@H](C)CN[C@H](C)[C@@H](O)[C@](C)(O)[C@@H](CC)OC(=O)[C@@H]2C)C[C@@]1(C)OC [Tulathromycin]
Conditions	minimum inhibitory concentration [µg/mL]
isolate (source animal id): 10	≤ 8
isolate (source animal id): 11	32 (≈ 39.7 µM)
isolate (source animal id): 12	32 (≈ 39.7 µM)
isolate (source animal id): 19	32 (≈ 39.7 µM)
isolate (source animal id): 23	16 (≈ 19.8 µM)
isolate (source animal id): 26	≤ 8
isolate (source animal id): 98	≤ 8
isolate (source animal id): 104	> 64
isolate (source animal id): 115	32 (≈ 39.7 µM)
isolate (source animal id): 117	≤ 8
isolate (source animal id): 118	16 (≈ 19.8 µM)
isolate (source animal id): 121	32 (≈ 39.7 µM)
isolate (source animal id): 124	≤ 8
isolate (source animal id): 125	≤ 8
isolate (source animal id): 128	32 (≈ 39.7 µM)
isolate (source animal id): 131	> 64
isolate (source animal id): 135	> 64
isolate (source animal id): 136	32 (≈ 39.7 µM)
isolate (source animal id): 140	16 (≈ 19.8 µM)
isolate (source animal id): 144	16 (≈ 19.8 µM)
isolate (source animal id): 146	16 (≈ 19.8 µM)
isolate (source animal id): 150	64 (≈ 79.4 µM)
isolate (source animal id): 151	64 (≈ 79.4 µM)
isolate (source animal id): 153	16 (≈ 19.8 µM)
isolate (source animal id): 155	≤ 8
isolate (source animal id): 157	≤ 8
isolate (source animal id): 160	64 (≈ 79.4 µM)
isolate (source animal id): 164	64 (≈ 79.4 µM)
isolate (source animal id): 165	64 (≈ 79.4 µM)
isolate (source animal id): 167	≤ 8
isolate (source animal id): 168	≤ 8
isolate (source animal id): 169	≤ 8
isolate (source animal id): 170	≤ 8
isolate (source animal id): 171	≤ 8
isolate (source animal id): 172	≤ 8
isolate (source animal id): 173	16 (≈ 19.8 µM)
isolate (source animal id): 174	≤ 8
isolate (source animal id): 175	≤ 8
isolate (source animal id): 176	≤ 8
isolate (source animal id): 177	≤ 8
isolate (source animal id): 178	≤ 8
isolate (source animal id): 179	≤ 8
isolate (source animal id): 182	≤ 8
isolate (source animal id): 192	≤ 8
isolate (source animal id): 193	≤ 8
isolate (source animal id): 195	≤ 8
isolate (source animal id): 196	≤ 8
isolate (source animal id): 197	≤ 8
isolate (source animal id): 198	16 (≈ 19.8 µM)
isolate (source animal id): 199	≤ 8
isolate (source animal id): 200	≤ 8
isolate (source animal id): 201	≤ 8
isolate (source animal id): 203	≤ 8
isolate (source animal id): 204	≤ 8
isolate (source animal id): 205	16 (≈ 19.8 µM)
isolate (source animal id): 206	≤ 8
isolate (source animal id): 207	≤ 8
isolate (source animal id): 208	≤ 8
isolate (source animal id): 209	≤ 8
isolate (source animal id): 210	16 (≈ 19.8 µM)
isolate (source animal id): 213	≤ 8
isolate (source animal id): 216	≤ 8
isolate (source animal id): 223	16 (≈ 19.8 µM)
isolate (source animal id): 227	≤ 8
isolate (source animal id): 229	≤ 8
isolate (source animal id): 233	≤ 8
isolate (source animal id): 234	≤ 8
isolate (source animal id): 237	16 (≈ 19.8 µM)
isolate (source animal id): 241	16 (≈ 19.8 µM)
isolate (source animal id): 245	≤ 8
isolate (source animal id): 247	16 (≈ 19.8 µM)
isolate (source animal id): 250	≤ 8
isolate (source animal id): 254	32 (≈ 39.7 µM)
isolate (source animal id): 255	16 (≈ 19.8 µM)
isolate (source animal id): 258	≤ 8
isolate (source animal id): 261	≤ 8
isolate (source animal id): 262	16 (≈ 19.8 µM)
isolate (source animal id): 269	≤ 8
isolate (source animal id): 270	≤ 8
isolate (source animal id): 274	≤ 8
isolate (source animal id): 275	≤ 8
isolate (source animal id): 276	16 (≈ 19.8 µM)
isolate (source animal id): 277	≤ 8
isolate (source animal id): 278	≤ 8
isolate (source animal id): 279	≤ 8
isolate (source animal id): 280	> 64
isolate (source animal id): 284	≤ 8
isolate (source animal id): 285	16 (≈ 19.8 µM)
isolate (source animal id): 287	16 (≈ 19.8 µM)
isolate (source animal id): 290	≤ 8
isolate (source animal id): 294	≤ 8
isolate (source animal id): 295	16 (≈ 19.8 µM)
isolate (source animal id): 296	≤ 8
isolate (source animal id): 307	≤ 8
isolate (source animal id): 310	16 (≈ 19.8 µM)
isolate (source animal id): 311	16 (≈ 19.8 µM)
isolate (source animal id): 312	≤ 8
isolate (source animal id): 313	16 (≈ 19.8 µM)
isolate (source animal id): 315	16 (≈ 19.8 µM)
isolate (source animal id): 316	16 (≈ 19.8 µM)
